The source of these data is patent US20230041065A1, “METHODS FOR GENERATING HEMATOPOIETIC STEM CELLS” (The Brigham and Women`s Hospital, Inc., priority 2019, published 2023).

One experiment relates to E11.5 AGM-derived HSCs. The experiment is described as follows: Serial transplantation of E11.5 AGM-derived HSCs into irradiated mice. In kind it is in vivo, mouse. As to the method: Pulsating blood vessels like conditions were stimulated in vitro using Flexcell FX-4000 machine. To analyze roles of pharmacological targets in regulating the endothelial-to-HSC transition, mouse embryo-derived AGM or whole mouse embryo were exposed ex vivo with biomechanical stretching, chemicals, or drugs. Next, hematopoietic colony formation assays were performed by incubating mouse AGM-derived cells in StemCell M3434 media for seven days. Serial transplantation of AGM-derived HSCs in lethally irradiated SJL mice were performed. The stem cell frequency upon biomechanical stretching was analyzed using a limiting dilution assay. To characterize properties of AGM-HSC-derived blood cells in primary transplants, percentage chimerism and reconstitution was measured using FACS, globin transcripts were analyzed using quantitative reverse transcriptase-PCR, myeloperoxidase amount was measured using PicoKine ELISA kit, TCR-β rearrangement was analyzed using PCR for TCR-β locus, pre-immune IG detection was analyzed using Thermo-Fisher Mouse Ig Isotyping kit, and delayed-type hypersensitivity was analyzed by injecting sheep RBC (Rockland Immunochemicals) in the footpad of pre-sensitized mice.
For primary transplantation, three-embryo equivalents of untreated or treated (cyclic strain or 25 μM Yoda1) AGMs plus splenic helper cells (˜500,000 per mouse) were injected into lethally irradiated (split dose […]) Cd45.1 (SJL) mice by retro-orbital injection. For secondary and tertiary transplants, the bone marrow was isolated (legs, arm, pelvic bone, spine, sternum) from the transplanted mice. The bone marrow was loaded on a Ficoll gradient (Histopaque®-1083, Sigma-Aldrich), and the cells from the buffy coat incubated with biotin-conjugated lineage antibodies and streptavidin microbeads (Miltenyi Biotec). Next, the lineage negative (Lin^−) cells were separated with MACS LS Columns (Miltenyi Biotec), and the donor Cd45.2 Lin^−Sca1+c-Kit^+ (LSK) cells sorted with a MoFlo Beckman Coulter sorter. Subsequently, the sorted Cd45.2 LSK cells were mixed with Cd45.1 splenic helper cells (˜500,000 per mouse) and transplanted into Cd45.1 irradiated (split dose […]) SJL mice by retro-orbital injection.
AGM cells from explants and ex vivo were stained with Sca1-Pacific-Blue (E13-161.7, Biolegend) and Flk1-APC-Cy7 (Avas 12α1, BD). Blood from transplanted mice was stained with the following antibody cocktail: Cd45.2-Pacific-Blue (104, Biolegend), Cd45.1-FITC (A20, Biolegend), Cd3-PE (145-2C11, Biolegend), Cd8-PE (53-6.7, Biolegend), Mac1-APC (M1/70, Biolegend), Gr1-APC (108412, Biolegend), Cd19-APC-CY7(6D5, Biolegend), B220-APC-CY7 (RA3-6B2, Biolegend). […]

Experiment [1] relates to human iPSC-derived hemogenic endothelial cells. Briefly: Yoda1 treatment of human iPSC-derived hemogenic endothelial cells: EHT and gene expression. In kind it is cell-based. The text has this: To determine the role of Dnmt3b in the EHT, we analyzed the endothelial and hematopoietic gene expression levels using whole transcriptome analyses. […] To consolidate our findings, we further independently measured the transcript levels of endothelial and hematopoietic genes. […] In summary, pulsation-mediated Piezo1 activation enhances Dnmt3b expression to repress endothelial genes, stimulating the endothelial-to-HSC transition. To analyze the conserved role of PIEZO1-mediated mechanosensitive mechanisms in human hematopoiesis, we employed directed differentiation of constitutive RUNX1c:tdTomato human induced pluripotent stem cells (iPSCs) to hemogenic endothelial cells, and treated such hemogenic endothelial cells with Yoda1.
Embryoid body and hemogenic endothelium differentiation was performed as described in (Sugimura et al. 2017; Ditadi et al. 2015). Briefly, hiPSC colonies were dissociated with 0.05% trypsin for 5 min at 37° C., washed with PBS+2% FBS, and resuspended in StemPro-34 (Invitrogen, 10639-011) supplemented with L-glutamine (2 mM), penicillin/streptomycin ([…]), ascorbic acid (1 mM), human holo-Transferrin ([…], Sigma T0665), monothioglycerol (MTG, 0.4 mM), BMP4 (10 ng/ml), and Y-27632 (10 μM). Five million cells were seeded into 10 cm dishes (Ezsphere, Asahi Glass) for the spheroid formation. On Day 1, bFGF (5 ng/ml) and BMP4 (10 ng/ml) was added to the medium. On Day 2, the media was changed with the StemPro-34 supplemented with SB431542 (6 μM), CHIR99021 (3 μM), bFGF (5 ng/ml), and BMP4 (10 ng/ml). On Day 3, the medium was replaced with StemPro-34 supplemented with VEGF (15 ng/ml) and bFGF (10 ng/ml). On day 6, the medium was changed to StemPro-34 supplemented with bFGF (5 ng/ml), VEGF (15 ng/ml), interleukin (IL)-6 (10 ng/ml), IGF-1 (25 ng/ml), IL-11 (5 ng/ml), SCF (50 ng/ml) and EPO (2IU). The cells were maintained in a 5% CO2, 5% O2 and 95% humidity incubator. All cytokines were purchased from Peprotech.

The mark [2] stands for this setting: human iPSC-derived hemogenic endothelial cells.

Each structure is given as a SMILES string.

For `Clc1cccc(Cl)c1CSc1nnc(-c2cnccn2)s1` [Yoda1, 2-[5-[[(2,6-Dichlorophenyl)methyl]thio]-1,3,4-thiadiazol-2-yl]-pyrazine], the “percentage reconstitution to myeloid cells, T-cells and B-cells” value in the experiment on E11.5 AGM-derived HSCs (primary transplant, week 16) was “stimulates the formation of HSCs that reconstitute to the blood”. The “percentage peripheral blood chimerism” value in the experiment with E11.5 AGM-derived HSCs (primary transplant, weeks 8-16, treated E11.5 AGM donor cells) is “stimulates the formation of HSCs”. Also, in the experiment with E11.5 AGM-derived HSCs (secondary transplant, week 12), the “percentage reconstitution to myeloid cells, T-cells and B-cells” value is recorded as “produces HSCs that can serially reconstitute to the blood”. Moreover, the “percentage peripheral blood chimerism” value in the experiment on E11.5 AGM-derived HSCs (secondary transplant, weeks 8-12) was “produces HSCs that have serial engraftment and self-renewal capacities”. For the same molecule, in experiment [1] (RUNX1c:tdTomato human iPSC-derived hemogenic endothelial cells), the human endothelial-to-hematopoietic transition entry is recorded as “stimulated the human endothelial-to-hematopoietic transition”. In experiment [1] (setting [2]), the DNMT3A expression entry was “not DNMT3A expression”; the DNMT3B expression entry is “enhanced DNMT3B expression”; the “expression of endothelial genes (VEGFA, HEY2, GPR116, GNA13, CDH5, PLXND1)” value is “silenced endothelial genes”; the “expression of hematopoietic genes (RUNX1, SPI1, CEBPA, TAL1, GATA2)” value was “induced the expression of hematopoietic genes”.
